Experimental data from patent publication US20250276983A1, “COMPOUNDS AND METHODS FOR MODULATING HER2” (IAMBIC THERAPEUTICS, INC., priority 2022, published 2025).

Key:
Type in all cases: cell-based
BaF3_HER2YVMA cells = experiment: Cell growth inhibition assay, BaF3_HER2YVMA; settings: 72 h, BaF3_HER2YVMA cells, 3 days treatment, CellTiterGlo 2.0; read-out: HER2-YVMA IC50 (nM), cell growth inhibition
BaF3_HER2WT cells = experiment: Cell growth inhibition assay, BaF3_HER2WT; settings: 72 h, 3 days treatment, CellTiterGlo 2.0, read-out: HER2 WT IC50 (nM), cell growth inhibition
BaF3_EGFRWT cells = experiment: Cell growth inhibition assay, BaF3_EGFRWT; settings: 72 h, 80 ng/mL recombinant human EGF, 3 days treatment, CellTiterGlo 2.0, read-out: EGFR WT IC50 (nM), cell growth inhibition

| IC50 (BaF3_HER2YVMA cells) [nM] | IC50 (BaF3_HER2WT cells) [nM] | IC50 (BaF3_EGFRWT cells) [nM] | Structure (SMILES) |
| --- | --- | --- | --- |
| 500 to 1500 | 200 to 500 | 1500 to 5000 | Cc1cc(Nc2ncnn3ccc(C4(O)CCN(C(=O)/C=C/CN(C)C)CC4)c23)ccc1Oc1ccn2ncnc2c1 [Example 50, (E)-1-(4-(4-((4-([1,2,4]triazolo[1,5-a]pyridin-7-yloxy)-3-methylphenyl)amino)pyrrolo[2,1-f][1,2,4]triazin-5-yl)-4-hydroxypiperidin-1-yl)-4-(dimethylamino)but-2-en-1-one] |
| < 200 | < 200 | 1500 to 5000 | Cc1cc(Nc2ncnn3ccc(C4(O)CN(C(=O)/C=C/CN(C)C)C4)c23)ccc1Oc1ccn2ncnc2c1 [Example 51, (E)-1-(3-(4-((4-([1,2,4]triazolo[1,5-a]pyridin-7-yloxy)-3-methylphenyl)amino)pyrrolo[2,1-f][1,2,4]triazin-5-yl)-3-hydroxyazetidin-1-yl)-4-(dimethylamino)but-2-en-1-one] |
| 500 to 1500 | 200 to 500 | 1500 to 5000 | COC1(c2ccn3ncnc(Nc4ccc(Oc5ccn6ncnc6c5)c(C)c4)c23)CCN(C(=O)/C=C/CN(C)C)CC1 [Example 52, (E)-1-(4-(4-((4-([1,2,4]triazolo[1,5-a]pyridin-7-yloxy)-3-methylphenyl)amino)pyrrolo[2,1-f][1,2,4]triazin-5-yl)-4-methoxypiperidin-1-yl)-4-(dimethylamino)but-2-en-1-one] |
| < 200 | < 200 | 1500 to 5000 | Cc1cc(Nc2ncnn3ccc(C4=CCN(C(=O)/C=C/CN(C)C)CC4)c23)ccc1Oc1ccn2ncnc2c1 [Example 53, (E)-1-(4-(4-((4-([1,2,4]triazolo[1,5-a]pyridin-7-yloxy)-3-methylphenyl)amino)pyrrolo[2,1-f][1,2,4]triazin-5-yl)-3,6-dihydropyridin-1(2H)-yl)-4-(dimethylamino)but-2-en-1-one] |
| 1500 to 5000 | 500 to 1500 | 1500 to 5000 | Cc1cc(Nc2ncnn3ccc(N4CCN(C(=O)/C=C/CN(C)C)CC4=O)c23)ccc1Oc1ccn2ncnc2c1 [Example 54, (E)-1-(4-((4-([1,2,4]triazolo[1,5-a]pyridin-7-yloxy)-3-methylphenyl)amino)pyrrolo[2,1-f][1,2,4]triazin-5-yl)-4-(4-(dimethylamino)but-2-enoyl)piperazin-2-one] |
| < 200 | < 200 | 1500 to 5000 | Cc1cc(Nc2ncnn3ccc(C4CCN(C(=O)/C=C/CN5CCOCC5)CC4)c23)ccc1Oc1ccn2ncnc2c1 [Example 56, (E)-1-(4-(4-((4-([1,2,4]triazolo[1,5-a]pyridin-7-yloxy)-3-methylphenyl)amino)pyrrolo[2,1-f][1,2,4]triazin-5-yl)piperidin-1-yl)-4-morpholinobut-2-en-1-one] |
| < 200 | < 200 | 1500 to 5000 | Cc1cc(Nc2ncnn3ccc(C4CCN(C(=O)/C=C/CN5CCCCC5)CC4)c23)ccc1Oc1ccn2ncnc2c1 [Example 57, (E)-1-(4-(4-((4-([1,2,4]triazolo[1,5-a]pyridin-7-yloxy)-3-methylphenyl)amino)pyrrolo[2,1-f][1,2,4]triazin-5-yl)piperidin-1-yl)-4-(piperidin-1-yl)but-2-en-1-one] |
| 500 to 1500 | < 200 | 1500 to 5000 | COC/C=C/C(=O)N1CCC(c2ccn3ncnc(Nc4ccc(Oc5ccn6ncnc6c5)c(C)c4)c23)CC1 [Example 58, (E)-1-(4-(4-((4-([1,2,4]triazolo[1,5-a]pyridin-7-yloxy)-3-methylphenyl)amino)pyrrolo[2,1-f][1,2,4]triazin-5-yl)piperidin-1-yl)-4-methoxybut-2-en-1-one] |
| 200 to 500 | < 200 | 1500 to 5000 | C#CCN(C)C/C=C/C(=O)N1CCC(c2ccn3ncnc(Nc4ccc(Oc5ccn6ncnc6c5)c(C)c4)c23)CC1 [Example 59, (E)-1-(4-(4-((4-([1,2,4]triazolo[1,5-a]pyridin-7-yloxy)-3-methylphenyl)amino)pyrrolo[2,1-f][1,2,4]triazin-5-yl)piperidin-1-yl)-4-(methyl(prop-2-yn-1-yl)amino)but-2-en-1-one] |
| < 200 | < 200 | 1500 to 5000 | Cc1cc(Nc2ncnn3ccc(C4CN(C(=O)/C=C/CN5CCC(F)CC5)C4)c23)ccc1Oc1ccn2ncnc2c1 [Example 62, (E)-1-(3-(4-((4-([1,2,4]triazolo[1,5-a]pyridin-7-yloxy)-3-methylphenyl)amino)pyrrolo[2,1-f][1,2,4]triazin-5-yl)azetidin-1-yl)-4-(4-fluoropiperidin-1-yl)but-2-en-1-one] |
| 500 to 1500 | 500 to 1500 | 1500 to 5000 | Cc1cc(Nc2ncnn3ccc(N4CCN(C(=O)C(F)Cl)CC(F)(F)C4)c23)ccc1Oc1ccn2ncnc2c1 (stereo not drawn) [Example 63, 1-(4-(4-((4-([1,2,4]triazolo[1,5-a]pyridin-7-yloxy)-3-methylphenyl)amino)pyrrolo[2,1-f][1,2,4]triazin-5-yl)-6,6-difluoro-1,4-diazepan-1-yl)-2-chloro-2-fluoroethan-1-one] |
| < 200 | < 200 | 200 to 500 | Cc1cc(Nc2ncnn3ccc(C4CCN(C(=O)C#CCN(C)C)CC4)c23)ccc1Oc1ccn2ncnc2c1 [Example 64, 1-(4-(4-((4-([1,2,4]triazolo[1,5-a]pyridin-7-yloxy)-3-methylphenyl)amino)pyrrolo[2,1-f][1,2,4]triazin-5-yl)piperidin-1-yl)-4-(dimethylamino)but-2-yn-1-one] |
| < 200 | < 200 | 1500 to 5000 | Cc1cc(Nc2ncnn3ccc(C4CCN(C(=O)/C=C/C5CCCN5C)CC4)c23)ccc1Oc1ccn2ncnc2c1 (stereo not drawn) [Example 65, (E)-1-(4-(4-((4-([1,2,4]triazolo[1,5-a]pyridin-7-yloxy)-3-methylphenyl)amino)pyrrolo[2,1-f][1,2,4]triazin-5-yl)piperidin-1-yl)-3-(1-methylpyrrolidin-2-yl)prop-2-en-1-one] |
| < 200 | < 200 | 1500 to 5000 | Cc1cc(Nc2ncnn3ccc(C4CN(C(=O)/C=C/C5CCCN5C)C4)c23)ccc1Oc1ccn2ncnc2c1 (stereo not drawn) [Example 66, (E)-1-(3-(4-((4-([1,2,4]triazolo[1,5-a]pyridin-7-yloxy)-3-methylphenyl)amino)pyrrolo[2,1-f][1,2,4]triazin-5-yl)azetidin-1-yl)-3-(1-methylpyrrolidin-2-yl)prop-2-en-1-one] |
| < 200 | < 200 | 500 to 1500 | C=C(CN(C)C)C(=O)N1CC(c2ccn3ncnc(Nc4ccc(Oc5ccc6c(c5)ncn6C)c(C)c4)c23)C1 [Example 67, 2-((dimethylamino)methyl)-1-(3-(4-((3-methyl-4-((1-methyl-1H-benzo[d]imidazol-5-yl)oxy)phenyl)amino)pyrrolo[2,1-f][1,2,4]triazin-5-yl)azetidin-1-yl)prop-2-en-1-one] |
| < 200 | < 200 | 1500 to 5000 | Cc1cc(Nc2ncnn3ccc(N4CCCC(N(C)C(=O)/C=C/CN(C)C)C4)c23)ccc1Oc1ccn2ncnc2c1 (stereo not drawn) [Example 68, (E)-N-(1-(4-((4-([1,2,4]triazolo[1,5-a]pyridin-7-yloxy)-3-methylphenyl)amino)pyrrolo[2,1-f][1,2,4]triazin-5-yl)piperidin-3-yl)-4-(dimethylamino)-N-methylbut-2-enamide] |
| 200 to 500 | < 200 | 1500 to 5000 | C=CC(=O)N(C)C1CCCN(c2ccn3ncnc(Nc4ccc(Oc5ccn6ncnc6c5)c(C)c4)c23)C1 (stereo not drawn) [Example 69, N-(1-(4-((4-([1,2,4]triazolo[1,5-a]pyridin-7-yloxy)-3-methylphenyl)amino)pyrrolo[2,1-f][1,2,4]triazin-5-yl)piperidin-3-yl)-N-methylacrylamide] |

| Structure (SMILES) | IC50 (BaF3_HER2YVMA cells) [nM] | IC50 (BaF3_HER2WT cells) [nM] | IC50 (BaF3_EGFRWT cells) [nM] |
| --- | --- | --- | --- |
| C=CC(=O)N1C2CCC1CN(c1ccn3ncnc(Nc4ccc(Oc5ccn6ncnc6c5)c(C)c4)c13)C2 [Example 46, 1-(3-(4-((4-([1,2,4]triazolo[1,5-a]pyridin-7-yloxy)-3-methylphenyl)amino)pyrrolo[2,1-f][1,2,4]triazin-5-yl)-3,8-diazabicyclo[3.2.1]octan-8-yl)prop-2-en-1-one] | < 200 | < 200 | 200 to 500 |
| Cc1cc(Nc2ncnn3ccc(N4CC5CCC(C4)N5C(=O)/C=C/CN(C)C)c23)ccc1Oc1ccn2ncnc2c1 [Example 47, (E)-1-(3-(4-((4-([1,2,4]triazolo[1,5-a]pyridin-7-yloxy)-3-methylphenyl)amino)pyrrolo[2,1-f][1,2,4]triazin-5-yl)-3,8-diazabicyclo[3.2.1]octan-8-yl)-4-(dimethylamino)but-2-en-1-one] | < 200 | < 200 | 1500 to 5000 |
| C=C(CN(C)C)C(=O)N1C2CCC1CN(c1ccn3ncnc(Nc4ccc(Oc5ccn6ncnc6c5)c(C)c4)c13)C2 [Example 48, 1-(3-(4-((4-([1,2,4]triazolo[1,5-a]pyridin-7-yloxy)-3-methylphenyl)amino)pyrrolo[2,1-f][1,2,4]triazin-5-yl)-3,8-diazabicyclo[3.2.1]octan-8-yl)-2-((dimethylamino)methyl)prop-2-en-1-one] | 1500 to 5000 | 200 to 500 | 1500 to 5000 |
| C=C(CN(C)C)C(=O)N1CC2CCC(C1)N2c1ccn2ncnc(Nc3ccc(Oc4ccn5ncnc5c4)c(C)c3)c12 [Example 49, 1-(8-(4-((4-([1,2,4]triazolo[1,5-a]pyridin-7-yloxy)-3-methylphenyl)amino)pyrrolo[2,1-f][1,2,4]triazin-5-yl)-3,8-diazabicyclo[3.2.1]octan-3-yl)-2-((dimethylamino)methyl)prop-2-en-1-one acetate] | < 200 | < 200 | 1500 to 5000 |
| C=CC(=O)N1CCC2CCC(C1)N2c1ccn2ncnc(Nc3ccc(Oc4ccn5ncnc5c4)c(C)c3)c12 (stereo not drawn) [Example 55, 1-(9-(4-((4-([1,2,4]triazolo[1,5-a]pyridin-7-yloxy)-3-methylphenyl)amino)pyrrolo[2,1-f][1,2,4]triazin-5-yl)-3,9-diazabicyclo[4.2.1]nonan-3-yl)prop-2-en-1-one] | 500 to 1500 | < 200 | 1500 to 5000 |
